Several values for one entry are separate records, joined by “and”; a condition that tells them apart may be missing. Equal values may be shown once. Some results are limits rather than exact numbers.

Format in all cases: biochemical
For test [1], the target named is T1, hLPCAT1 (Homo sapiens, UniProt Q8NF37).
T1 construct: expressed in transfected cells
T1 sequence (Q8NF37 1-534): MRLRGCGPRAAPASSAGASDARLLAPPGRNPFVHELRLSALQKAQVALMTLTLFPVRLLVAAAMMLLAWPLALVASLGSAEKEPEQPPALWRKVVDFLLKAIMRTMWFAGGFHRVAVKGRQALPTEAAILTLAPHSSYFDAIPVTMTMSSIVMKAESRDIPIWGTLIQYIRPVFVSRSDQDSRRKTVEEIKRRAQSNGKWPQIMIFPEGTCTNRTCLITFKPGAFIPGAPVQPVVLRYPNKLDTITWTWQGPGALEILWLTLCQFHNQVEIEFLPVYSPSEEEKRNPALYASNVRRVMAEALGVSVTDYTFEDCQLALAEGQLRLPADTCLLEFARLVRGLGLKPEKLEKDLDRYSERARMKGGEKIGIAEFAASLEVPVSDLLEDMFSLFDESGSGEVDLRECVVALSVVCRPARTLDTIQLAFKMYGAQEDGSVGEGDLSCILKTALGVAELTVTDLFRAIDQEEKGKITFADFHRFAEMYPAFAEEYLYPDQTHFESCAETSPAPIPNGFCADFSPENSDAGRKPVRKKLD
As to the kind of experiment: lyso-PAFAT (acetyltransferase) activity assay, PAF product by LC-MS/MS. Particulars: 0, 0.2, 0.6, 2, 6 and 20 μM of each compound in triplicate; LC-MS/MS; read-out: IC50, product PAF, enzyme hLPCAT1. On the procedure:
(§1) Microsomal protein fractions (0.5 μg) supplemented with the indicated compound concentrations were added to the reaction mixture containing 100 mM Tris-HCl (pH 7.4), 1 μM CaCl2, 0.015% Tween-20, and two substrates. For acetyltransferase activity, the substrates were 1 mM acetyl-CoA and 5 μM d4-lyso-PAF; for the acyltransferase activity of LPCAT1 or LPCAT2, the substrates were, respectively, palmitoyl-CoA and d31-16:0 LPC or arachidonoyl-CoA and d4-lyso-PAF (all 5 μM). Each lysophospholipid contained fatty acid at the sn-1 position. After incubation at 37°C for 5 min, the reactions were stopped by adding 300 μl methanol containing 17:0 LPC or 14:0/14:0 PC as an internal standard. Deuterium-labeled products were analyzed by LC-MS/MS (Waters, Milford, MA and Thermo Scientific, Waltham, MA). […]
(§2) Steps 2 to 5 screening: 96-well plate assay
(§3) Acetyltransferase and acyltransferase assays were developed in 96-well plates. The microsomal hLPCAT2, obtained from mcPAF-stimulated CHO-S-PAFR cells was used in steps 1, 2, and 5. The microsomal hLPCAT1 obtained from unstimulated CHO-S cells was used in steps 3 to 5. Each well of the 96-well plates contained 30 µl of 15 µg/ml protein, 600 nl of 2 mM compound, 30 µl buffer C, and two substrates (Fig. 1B and C).
(§4) Substrate concentrations were as follows: acetyl-CoA, 250 or 1000 µM acetyl-CoA; […]
(§5) arachidonoyl-CoA, 5 µM; palmitoyl-CoA, 5 µM; d4-lyso-PAF, 5 µM; and d31-LPC, 5 µM.
(§6) For step 5, compound concentrations were 0, 0.167, 0.67, 2, 6.7, and 20 µM. The deuterium-labeled products were measured by LC-MS/MS. Percentage inhibition (steps 2 to 4) or IC50 (step 5) was used as the hit criterion. […]
(§7) Step 7 screening: species-specific differences
(§8) To evaluate the effects on the activity of mouse or human LPCAT1 and LPCAT2, each microsomal fraction was obtained using CHO-S-PAFR cells with or without mcPAF (200 nM) stimulation for 5 min. Acetyltransferase and acyltransferase assays were performed with 20 µM of each compound. Percentage inhibition was calculated in each

Test [2] addresses T2, hLPCAT2 (Homo sapiens, UniProt Q7L5N7).
T2 construct: expressed in transfected cells; host or cells: CHO-S-PAFR cells (microsomal fraction), with or without mcPAF stimulation
T2 sequence (Q7L5N7 1-544): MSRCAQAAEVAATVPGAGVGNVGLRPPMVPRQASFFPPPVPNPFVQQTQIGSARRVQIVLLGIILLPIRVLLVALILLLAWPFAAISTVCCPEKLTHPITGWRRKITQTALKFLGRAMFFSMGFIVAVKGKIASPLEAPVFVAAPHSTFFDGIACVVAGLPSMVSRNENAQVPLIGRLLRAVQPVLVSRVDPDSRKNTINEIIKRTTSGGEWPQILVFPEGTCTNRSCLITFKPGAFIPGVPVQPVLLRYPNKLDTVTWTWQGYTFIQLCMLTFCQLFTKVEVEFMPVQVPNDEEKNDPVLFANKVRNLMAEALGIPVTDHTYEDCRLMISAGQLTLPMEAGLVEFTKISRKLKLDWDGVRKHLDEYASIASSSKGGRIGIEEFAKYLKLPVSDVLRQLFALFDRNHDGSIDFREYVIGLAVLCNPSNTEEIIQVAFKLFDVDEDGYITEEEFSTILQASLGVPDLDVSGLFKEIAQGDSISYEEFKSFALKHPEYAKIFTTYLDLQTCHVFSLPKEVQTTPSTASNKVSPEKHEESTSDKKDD
Described as above. Particulars: 0, 0.2, 0.6, 2, 6 and 20 μM of each compound in triplicate; LC-MS/MS; read-out: IC50, product PAF, enzyme hLPCAT2. As to the method:
as §1, §2, §3, §4, §5
For step 5, compound concentrations were 0, 0.167, 0.67, 2, 6.7, and 20 µM. The deuterium-labeled products were measured by LC-MS/MS. Percentage inhibition (steps 2 to 4) or IC50 (step 5) was used as the hit criterion.
Step 6 screening: BSA assay
The acetyltransferase assay was performed with 20 µM of each compound and microsomal hLPCAT2 from step 1. The assay mixture contained 0.4% BSA and two substrates for lyso-PAFAT activity: 1 mM acetyl-CoA and 5 µM d4-lyso-PAF. Percentage inhibition values were determined.
as §7, §8

Test [3] deals with T1, hLPCAT1. Put plainly: acyltransferase activity assay, DPPC product by LC-MS/MS. Particulars: 0, 0.2, 0.6, 2, 6 and 20 μM of each compound in triplicate; LC-MS/MS; read-out: IC50, product DPPC, enzyme hLPCAT1. On the procedure: as §1, §2, §3, §4, §5, §6, §7, §8
The target of test [4] is T2, hLPCAT2. Put plainly: acyltransferase activity assay, 16:0/20:4 alkyl-PC product by LC-MS/MS. Particulars: 0, 0.2, 0.6, 2, 6 and 20 μM of each compound in triplicate; LC-MS/MS; read-out: IC50, product Alkyl-PC (16:0/20:4 alkyl-PC), enzyme hLPCAT2. As to the method:
as §1, §2, §3, §4, §5, §6, §7, §8

On to `CCN1C(=O)C=CC1=O` [N-ethylmaleimide (NEM), N-ethylmaleimide, reference compound], for which the IC50 on hLPCAT1 [1] is 1720 µM; on hLPCAT2 [2], 106 µM; at hLPCAT1 [3], 1850 µM; on hLPCAT2 [4], 69.6 µM.

In the case of `COc1ccc(Cl)cc1N1C(=O)C(Cl)=C(Cl)C1=O` [TSI-03], the IC50 on hLPCAT1 [1] is 9.38 µM; at hLPCAT2 [2], > 10 µM and 12.1 µM; on hLPCAT1 [3], greater than 20 µM; at hLPCAT2 [4], 17.1 µM.

With `COc1ccc(Cl)cc1N1C(=O)C(Cl)=C(Nc2ccccc2O)C1=O` [TSI-04], the IC50 is 7.79 µM at hLPCAT1 [1]; > 10 µM and 16.3 µM on hLPCAT2 [2]; greater than 20 µM at hLPCAT1 [3]; greater than 20 µM at hLPCAT2 [4].

In the case of `COc1ccc(N2C(=O)C(Cl)=C(Oc3ccccc3OC)C2=O)cc1` [TSI-05], the IC50 at hLPCAT1 [1] was greater than 20 µM; at hLPCAT2 [2], greater than 20 µM; on hLPCAT1 [3], greater than 20 µM; at hLPCAT2 [4] it was 7.58 µM.

As to `CC(C)OC(=O)c1ccc(N2C(=O)C(Cl)=C(N3CCOCC3)C2=O)cc1` [TSI-06], the IC50 on hLPCAT1 [1], at hLPCAT2 [2], at hLPCAT1 [3] and on hLPCAT2 [4] was greater than 20 µM each time.

For the compound `COC(=O)c1ccc(N2C(=O)C(Cl)=C(Nc3ccc(S(N)(=O)=O)cc3)C2=O)cc1` [TSI-08], the IC50 on hLPCAT1 [1], at hLPCAT2 [2], on hLPCAT1 [3] and at hLPCAT2 [4] was greater than 20 µM each time.

Take `COC(=O)c1ccc(N2C(=O)C(Cl)=C(Cl)C2=O)cc1` [TSI-09]: the IC50 is 10.1 µM at hLPCAT1 [1], 3.5 µM on hLPCAT2 [2], greater than 20 µM at hLPCAT1 [3] and 11.6 µM at hLPCAT2 [4].

Values taken from PMC4076079, “Selective inhibitors of a PAF biosynthetic enzyme lysophosphatidylcholine acyltransferase 2” (Journal of Lipid Research, 2014).
